Assay [1] deals with T1, Tyrosine-protein kinase receptor TYRO3 (Homo sapiens) (UniProt Q06418).
T1 sequence (whole entry): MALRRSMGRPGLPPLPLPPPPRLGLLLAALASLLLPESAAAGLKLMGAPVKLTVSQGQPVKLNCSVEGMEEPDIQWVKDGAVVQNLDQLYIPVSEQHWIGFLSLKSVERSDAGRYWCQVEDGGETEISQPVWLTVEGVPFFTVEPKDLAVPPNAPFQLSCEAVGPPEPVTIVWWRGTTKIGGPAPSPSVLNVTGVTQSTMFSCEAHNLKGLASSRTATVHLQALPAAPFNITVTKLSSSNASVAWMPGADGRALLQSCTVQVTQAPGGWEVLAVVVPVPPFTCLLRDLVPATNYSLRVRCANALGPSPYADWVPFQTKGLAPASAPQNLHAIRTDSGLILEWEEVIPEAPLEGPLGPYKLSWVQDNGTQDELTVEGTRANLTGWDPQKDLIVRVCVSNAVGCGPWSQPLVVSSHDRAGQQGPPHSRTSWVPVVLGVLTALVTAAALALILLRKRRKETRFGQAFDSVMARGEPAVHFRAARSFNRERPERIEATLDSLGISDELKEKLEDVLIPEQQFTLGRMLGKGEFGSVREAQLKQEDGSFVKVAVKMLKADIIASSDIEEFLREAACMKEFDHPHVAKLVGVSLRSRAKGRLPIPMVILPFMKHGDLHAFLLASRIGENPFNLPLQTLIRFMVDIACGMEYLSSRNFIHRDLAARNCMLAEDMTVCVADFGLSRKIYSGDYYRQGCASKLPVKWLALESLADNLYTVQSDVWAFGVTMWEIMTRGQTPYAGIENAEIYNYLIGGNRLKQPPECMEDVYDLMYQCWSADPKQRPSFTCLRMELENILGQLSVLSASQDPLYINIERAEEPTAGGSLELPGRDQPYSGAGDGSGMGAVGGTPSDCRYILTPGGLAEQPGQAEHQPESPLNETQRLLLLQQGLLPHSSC
In words: Selectivity interaction (Ambit KINOMEscan and KiNATiv profiling in Jurkat cells) EUB0000090b TYRO3. The class given is cell-based. The settings on record: at 1 µM.

In assay [2] the target is Tyrosine-protein kinase Fes/Fps (Homo sapiens) (UniProt P07332). The settings on record: at 10 µM.
Sequence of Tyrosine-protein kinase Fes/Fps (Homo sapiens) (P07332 whole entry): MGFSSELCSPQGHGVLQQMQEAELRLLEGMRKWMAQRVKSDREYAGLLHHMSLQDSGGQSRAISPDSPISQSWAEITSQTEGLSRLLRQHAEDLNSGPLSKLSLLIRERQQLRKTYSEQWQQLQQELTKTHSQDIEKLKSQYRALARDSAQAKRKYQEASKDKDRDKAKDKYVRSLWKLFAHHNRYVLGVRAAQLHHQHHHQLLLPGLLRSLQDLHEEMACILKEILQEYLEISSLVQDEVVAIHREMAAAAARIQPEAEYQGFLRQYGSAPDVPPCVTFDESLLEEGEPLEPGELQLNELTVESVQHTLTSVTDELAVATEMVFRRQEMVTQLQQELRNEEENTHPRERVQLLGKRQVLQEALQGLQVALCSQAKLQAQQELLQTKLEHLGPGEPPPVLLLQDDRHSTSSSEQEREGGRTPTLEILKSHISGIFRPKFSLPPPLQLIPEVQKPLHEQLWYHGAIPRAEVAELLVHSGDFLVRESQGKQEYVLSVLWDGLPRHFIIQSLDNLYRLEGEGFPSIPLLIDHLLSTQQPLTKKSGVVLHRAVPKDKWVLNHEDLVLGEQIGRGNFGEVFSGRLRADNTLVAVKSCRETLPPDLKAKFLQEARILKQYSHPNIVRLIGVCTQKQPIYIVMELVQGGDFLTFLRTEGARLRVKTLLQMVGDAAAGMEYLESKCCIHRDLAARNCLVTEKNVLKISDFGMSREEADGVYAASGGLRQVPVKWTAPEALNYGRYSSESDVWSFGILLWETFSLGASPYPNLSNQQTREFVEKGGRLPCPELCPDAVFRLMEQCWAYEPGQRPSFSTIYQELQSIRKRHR
The target of assay [3] is Mitogen-activated protein kinase kinase kinase 9 (Homo sapiens) (UniProt P80192). In words: Selectivity interaction (KinomeScan (DiscoverX)) EUB0000695a MAP3K9. The settings on record: at 100 nM.
Sequence of Mitogen-activated protein kinase kinase kinase 9 (Homo sapiens) (P80192 whole entry, looked up): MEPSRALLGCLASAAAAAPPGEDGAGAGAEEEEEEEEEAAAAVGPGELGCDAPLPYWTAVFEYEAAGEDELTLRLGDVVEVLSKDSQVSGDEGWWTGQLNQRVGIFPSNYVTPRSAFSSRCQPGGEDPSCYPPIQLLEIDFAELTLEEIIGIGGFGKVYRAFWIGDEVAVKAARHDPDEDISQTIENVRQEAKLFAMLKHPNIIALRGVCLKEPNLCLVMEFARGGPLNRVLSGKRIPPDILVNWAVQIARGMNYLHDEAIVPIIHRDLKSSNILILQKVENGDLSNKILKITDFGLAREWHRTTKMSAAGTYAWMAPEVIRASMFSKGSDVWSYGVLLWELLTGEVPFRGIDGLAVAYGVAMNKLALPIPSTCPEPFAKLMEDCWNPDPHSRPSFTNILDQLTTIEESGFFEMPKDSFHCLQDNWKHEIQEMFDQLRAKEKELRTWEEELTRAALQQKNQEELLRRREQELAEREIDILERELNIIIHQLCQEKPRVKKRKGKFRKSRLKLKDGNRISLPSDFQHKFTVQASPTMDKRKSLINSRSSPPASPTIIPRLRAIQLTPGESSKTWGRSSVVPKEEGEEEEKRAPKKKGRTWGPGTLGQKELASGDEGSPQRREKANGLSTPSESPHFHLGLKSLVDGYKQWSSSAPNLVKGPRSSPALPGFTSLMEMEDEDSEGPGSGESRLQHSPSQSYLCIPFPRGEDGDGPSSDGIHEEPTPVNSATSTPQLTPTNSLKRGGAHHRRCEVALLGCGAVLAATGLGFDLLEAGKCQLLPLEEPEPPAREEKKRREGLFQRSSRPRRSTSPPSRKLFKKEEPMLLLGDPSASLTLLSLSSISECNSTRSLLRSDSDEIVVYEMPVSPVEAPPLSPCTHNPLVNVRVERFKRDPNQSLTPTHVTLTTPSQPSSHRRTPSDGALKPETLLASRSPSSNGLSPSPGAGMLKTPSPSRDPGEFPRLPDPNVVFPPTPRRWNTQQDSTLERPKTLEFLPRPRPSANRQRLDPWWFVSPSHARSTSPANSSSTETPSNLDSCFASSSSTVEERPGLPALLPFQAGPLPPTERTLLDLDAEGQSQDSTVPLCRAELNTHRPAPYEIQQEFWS
Assay [4] concerns the target T2, Mitogen-activated protein kinase kinase kinase 3 (Homo sapiens) (UniProt Q99759).
T2 sequence (whole entry): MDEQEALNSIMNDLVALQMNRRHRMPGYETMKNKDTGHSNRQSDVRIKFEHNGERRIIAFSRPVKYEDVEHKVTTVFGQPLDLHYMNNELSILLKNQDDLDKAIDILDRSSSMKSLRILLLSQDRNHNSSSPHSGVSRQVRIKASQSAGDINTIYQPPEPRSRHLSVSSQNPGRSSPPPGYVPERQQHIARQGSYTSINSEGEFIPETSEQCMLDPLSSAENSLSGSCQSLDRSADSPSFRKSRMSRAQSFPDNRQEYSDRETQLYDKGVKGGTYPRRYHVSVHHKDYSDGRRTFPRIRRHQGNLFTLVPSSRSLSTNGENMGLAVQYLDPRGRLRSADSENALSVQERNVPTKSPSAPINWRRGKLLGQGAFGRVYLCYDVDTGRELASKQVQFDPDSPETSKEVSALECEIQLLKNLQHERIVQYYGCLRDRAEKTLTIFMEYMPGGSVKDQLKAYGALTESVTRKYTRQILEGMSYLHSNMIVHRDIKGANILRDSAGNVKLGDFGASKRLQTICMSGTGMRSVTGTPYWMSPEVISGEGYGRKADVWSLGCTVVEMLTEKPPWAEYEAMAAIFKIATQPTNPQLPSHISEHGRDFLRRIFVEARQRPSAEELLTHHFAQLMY
Put plainly: Selectivity interaction (KinomeScan (DiscoverX)) EUB0000092b MAP3K3. The settings on record: at 10 µM.

Assay [5] addresses T3, Serine/threonine-protein kinase ULK3 (Homo sapiens) (UniProt Q6PHR2).
T3 sequence (whole entry): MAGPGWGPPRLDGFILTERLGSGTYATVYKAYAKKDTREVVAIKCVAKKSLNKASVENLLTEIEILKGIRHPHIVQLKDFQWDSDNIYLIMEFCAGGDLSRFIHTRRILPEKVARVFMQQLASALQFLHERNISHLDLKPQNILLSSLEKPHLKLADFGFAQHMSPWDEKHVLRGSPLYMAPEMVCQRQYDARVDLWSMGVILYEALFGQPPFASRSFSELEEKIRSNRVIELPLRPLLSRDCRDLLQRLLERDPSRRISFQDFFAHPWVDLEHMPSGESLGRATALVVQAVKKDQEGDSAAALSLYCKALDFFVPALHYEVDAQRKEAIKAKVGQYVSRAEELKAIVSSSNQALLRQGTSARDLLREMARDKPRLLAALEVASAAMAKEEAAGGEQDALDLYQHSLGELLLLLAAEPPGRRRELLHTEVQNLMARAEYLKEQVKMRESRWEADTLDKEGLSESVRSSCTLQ
Put plainly: Selectivity interaction (KinomeScan (DiscoverX)) EUB0001550a ULK3. The settings on record: at 1 µM.

In assay [6] the target is T4, Activin receptor type-1 (Homo sapiens) (UniProt Q04771).
T4 sequence (whole entry): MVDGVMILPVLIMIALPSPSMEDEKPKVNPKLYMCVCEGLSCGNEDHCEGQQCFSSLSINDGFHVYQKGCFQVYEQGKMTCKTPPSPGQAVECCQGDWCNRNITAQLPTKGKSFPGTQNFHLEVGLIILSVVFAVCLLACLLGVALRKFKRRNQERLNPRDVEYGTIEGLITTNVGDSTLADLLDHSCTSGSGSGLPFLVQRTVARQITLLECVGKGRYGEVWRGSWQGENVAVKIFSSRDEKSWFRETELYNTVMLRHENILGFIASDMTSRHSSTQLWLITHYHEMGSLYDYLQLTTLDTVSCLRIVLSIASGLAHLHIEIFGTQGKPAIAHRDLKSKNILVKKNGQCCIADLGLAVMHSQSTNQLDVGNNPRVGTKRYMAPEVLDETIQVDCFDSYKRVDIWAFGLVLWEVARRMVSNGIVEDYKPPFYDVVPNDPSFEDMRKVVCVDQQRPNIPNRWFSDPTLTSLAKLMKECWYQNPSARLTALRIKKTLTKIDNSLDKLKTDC
In words: Selectivity interaction (KinomeScan (DiscoverX)) EUB0000618a ACVR1. The settings on record: at 10 µM.

For the compound `CN(C)C/C=C/C(=O)Nc1ccc(C(=O)N2CCCC(Nc3ncc(Cl)c(-c4c[nH]c5ccccc45)n3)C2)cc1` (stereo unspecified), the % of control in assay [1] came to 95%.

Compound `Cc1cc([C@@H](C)Nc2ccccc2C(=O)O)c2nc(N3CCOCC3)cc(=O)n2c1` [AZD-6482] showed a % of control in assay [2] of 94%. Take `Cc1cc(F)c(C(=O)Nc2cccc(-c3nncn3C(C)C)n2)cc1-n1cnc(C2CC2)c1`: the % of control in assay [3] was 99%. In assay [4], `CCC(=O)N1CCN(c2ccc(-n3c(=O)ccc4cnc5ccc(-c6cnc7ccccc7c6)cc5c43)cc2C(F)(F)F)CC1` came in with a % of control of 75%.

In assay [5], `CN(C)CC#Cc1ccc2[nH]c3c(c2c1)-c1nc(N)ncc1CCC3` gave a % of control of 11%. In turn, `O[C@H]1CC[C@H](Nc2ncc3nc(Nc4c(F)cc(F)cc4F)n([C@H]4CCOC4)c3n2)CC1` yielded a % of control in assay [6] of 100%.

The values above are taken from ChEMBL document CHEMBL5465560, “Selectivity Literature for EUbOPEN Chemogenomic Library” (2024).
